Test results reported in patent US20150031686A1, “PHENYL-OXAZOLYL DERIVATIVES, PREPARATION METHOD THEREOF, AND RELATED APPLICATION OF THE PHENYL-OXAZOLYL DERIVATIVES AS AN IMPDH INHIBITOR” (INSTITUTE OF MEDICINAL BIOTECHNOLOGY, CHINESE ACADEMY OF …, priority 2012, published 2015).
Converted amounts (≈) assume the structure as drawn.

Tested on: Coxsackie virus type B3 (COX-B3)
Test: Anti-Coxsackie virus type B3 (COX-B3) activity, CPE in Vero cells
Assay type: cell-based
Conditions: Reed-Muench
Method: With Vero (African green monkey kidney) cells as viral hosts, inhibitory effects of the compounds of present invention on the grades of pathological lesions by coxsackievirus B3 (COX-B3), B6 (COX-B6) viruses in Vero cells were determined. The measured results of viral inhibitory activity of the compounds are shown in Table 3 and Table 4; wherein RBV is the control drug ribavirin. The inhibitory activities of the measured compounds against coxsackievirus B3, B6 were stronger than the control.
Screening of Anti-B3, B6 Type Coxsackie Viruses (COX-B3, COX-B6) Activity of the Samples
Prepare stock solutions of COX-B3 (or COX-B6) virus strains as well as tested compounds in DMSO before use. Before tests, dilute the stock solution with culture solution into a certain concentration and then dilute 3 times to make a total of eight dilutions. Use ribavirin (RBV) as positive control. Test procedures are as follows: seed Vero cells into 96-well culture plates, infect with 10^−5 Coxsackie virus of B3 (or B6) type, 24 hours later; adsorb subsequently for 2 hours, then discard the virus solution, add in the sample compounds and the positive control according to the abovementioned dilutions, set cell control wells and virus control wells simultaneously. When the cytopathic effect (CPE) of cells in the virus control wells reach 4+, observe CPE of the cells in each group. Use Reed-Muench method to calculate 50% inhibitory concentration (IC50) of the sample compounds against coxsackie virus B3 (or B6) type.

Row | IC50 [µg/mL] | SMILES | IC50, anti-Coxsackie virus type B3 (COX-B3) [µg/mL]
1 | 0.45 (≈ 1.33 µM) | COc1cc(NCc2nc3ccccc3s2)ccc1-c1cnco1 [Compound 8, N-(benzothiazol-2-ylmethyl)-3-methoxy-4-(oxazol-5-yl) aniline] | –
2 | 0.23 (≈ 0.732 µM) | COc1cc(N(C)Cc2csc(C)c2)ccc1-c1cnco1 [Compound 12, N-methyl-N-(5-methylthien-3-ylmethyl)-3-methoxy-4-(oxazol-5-yl) aniline] | –
3 | – | C#CCN(Cc1cc(CC)sc1C)c1ccc(-c2cnco2)c(OC)c1 [Compound 13, N-(5-ethyl-2-methylthien-3-ylmethyl)-N-(3-methoxy-4-oxazole-5-phenyl) propyn-2-ylamine] | 0.30 (≈ 0.819 µM)
4 | 0.44 (≈ 1.37 µM) | COc1cc(NCc2csc(Cl)c2)ccc1-c1cnco1 [Compound 14, N-(5-chlorothien-3-ylmethyl)-3-methoxy-4-(oxazol-5-yl) aniline] | –
5 | 0.46 (≈ 1.26 µM) | COc1cc(NCc2csc(Br)c2)ccc1-c1cnco1 [Compound 15, N-(5-bromothien-3-ylmethyl)-3-methoxy-4-(oxazol-5-yl) aniline] | –
6 | 0.45 (≈ 1.24 µM) | COc1cc(NCc2csc(-c3ccccc3)c2)ccc1-c1cnco1 [Compound 16, N-(5-phenylthien-3-ylmethyl)-3-methoxy-4-(oxazol-5-yl) aniline] | –
7 | 2.56 (≈ 9 µM) | COc1cc(NCc2cncn2C)ccc1-c1cnco1 [Compound 17, N-(1-methyl-1H-imidazol-5-ylmethyl)-3-methoxy-4-(oxazol-5-yl) aniline] | –
8 | 0.25 (≈ 0.79 µM) | COc1cc(CNc2ccc(-c3cnco3)c(OC)c2)cs1 [Compound 18, N-(5-methoxy-thien-3-ylmethyl)-3-methoxy-4(oxazol-5-yl) aniline] | –
9 | 12.8 (≈ 43 µM) | COc1cc(/N=C/c2csc(C)c2)ccc1-c1cnco1 [Compound 19, N-(5-methylthien-3-ylmethylene)-3-methoxy-4-(oxazol-5-yl) aniline] | –
10 | 0.76 (≈ 2.54 µM) | COc1ccc(-c2cnco2)cc1NCc1c(C)noc1C [Compound 23, N-(3,5-dimethylisoxazol-4-ylmethyl)-2-methoxy-5-(oxazol-5-yl) aniline] | –
11 | 0.57 (≈ 1.7 µM) | COc1ccc(-c2cnco2)cc1NCc1ccc(CCl)s1 [Compound 24, N-(5-chloromethylthien-2-ylmethyl)-2-methoxy-5-(oxazol-5-yl) aniline] | –
12 | 0.53 (≈ 1.4 µM) | COc1ccc(-c2cnco2)cc1NCc1ccc(CBr)s1 [Compound 25, N-(5-bromomethylthien-2-ylmethyl)-2-methoxy-5-(oxazol-5-yl) aniline] | –
13 | 0.57 (≈ 1.57 µM) | COc1ccc(-c2cnco2)cc1NCc1ccc(-c2ccccc2)s1 [Compound 26, N-(5-phenylthien-2-ylmethyl)-2-methoxy-5-(oxazol-5-yl) aniline] | –
14 | 1.47 (≈ 4.42 µM) | COc1ccc(-c2cnco2)cc1NCc1c(C)nn(C)c1Cl [Compound 27, N-(5-chloro-1,3-dimethyl-1H-pyrazol-4-ylmethyl)-2-methoxy-5-(oxazol-5-yl) aniline] | –
15 | 1.23 (≈ 3.54 µM) | COc1ccc(-c2cnco2)cc1NCc1cnn(-c2ccccc2)n1 [Compound 28, N-(2-phenyl-2H-1,2,3-triazol-4-ylmethyl)-(2-methoxy-5-oxazole-5-yl) aniline] | –
16 | 10.7 (≈ 33.5 µM) | COc1ccc(-c2cnco2)cc1/N=C/c1cc(Cl)cs1 [Compound 29, N-(4-chlorothien-2-ylmethylene)-2-methoxy-5-(oxazol-5-yl)-aniline] | –
17 | 0.54 (≈ 1.46 µM) | COc1ccc(-c2cnco2)cc1NCc1cc2cc(Cl)ccc2s1 [Compound 30, N-(5-chlorobenzothien-2-ylmethyl)-2-methoxy-5-(oxazol-5-yl) aniline] | –
18 | 0.88 (≈ 3.07 µM) | COc1ccc(-c2cnco2)cc1NCc1ccsc1 [Compound 31, N-(thien-3-ylmethyl)-2-methoxy-5-(oxazol-5-yl) aniline] | –
19 | 0.68 (≈ 1.91 µM) | CCC(=O)N(Cc1csc(C)c1)c1cc(-c2cnco2)ccc1OC [Compound 32] | –

Row | IC50 [µg/mL] | SMILES | IC50, anti-Coxsackie virus type B3 (COX-B3) [µg/mL]
20 | 0.64 (≈ 2.12 µM) | COc1ccc(-c2cnco2)cc1NCC1CCN(C)CC1 [Compound 33, N-(2-methoxy-5-oxazol-5-ylphenyl)-1-methylpiperidin-4-yl methylamine] | –
21 | 0.57 (≈ 1.78 µM) | COc1ccc(-c2cnco2)cc1NCc1csc(Cl)c1 [Compound 34, N-(5-chlorothien-3-ylmethyl)-2-methoxy-5-(oxazol-5-yl) aniline] | –
22 | 0.57 (≈ 1.56 µM) | COc1ccc(-c2cnco2)cc1NCc1csc(Br)c1 [Compound 35, N-(5-bromothien-3-ylmethyl)-2-methoxy-5-(oxazol-5-yl) aniline] | –
23 | 0.59 (≈ 1.63 µM) | COc1ccc(-c2cnco2)cc1NCc1csc(-c2ccccc2)c1 [Compound 36, N-(5-phenylthien-3-ylmethyl)-2-methoxy-5-(oxazol-5-yl) aniline] | –
24 | 0.63 (≈ 2.18 µM) | COc1ccc(-c2cnco2)cc1NCC1CCOCC1 [Compound 37, N-(tetrahydropyran-4-ylmethyl)-2-methoxy-5-oxazol-5-yl aniline] | –
25 | 0.88 (≈ 3.12 µM) | COc1ccc(-c2cnco2)cc1NCc1cccnn1 [Compound 38, N-(pyridazin-3-yl-methyl)-2-methoxy-5-oxazol-5-yl aniline] | –
26 | 11.1 (≈ 39.1 µM) | COc1ccc(-c2cnco2)cc1/N=C/c1ccsc1 [Compound 39, N-(thien-3-ylmethylene)-2-methoxy-5-(oxazol-5-yl)-aniline] | –
27 | 0.26 (≈ 0.606 µM) | COc1ccc(-c2cnco2)cc1NCc1csc2c(C)c(Br)ccc12 [Compound 40, N-(6-bromo-7-methyl-benzothien-3-ylmethyl)-2-methoxy-5-oxazol-5-yl aniline] | –
28 | 1.03 (≈ 2.67 µM) | COc1cc(NCc2c(Cl)nc(Cl)nc2Cl)ccc1-c1cnco1 [Compound 43, N-(2,4,6-trichloropyrimidin-5-ylmethyl)-3-methoxy-4-(oxazol-5-yl) aniline] | –
29 | 0.69 (≈ 1.96 µM) | COc1cc(NCc2ncc(Cl)nc2Cl)ccc1-c1cnco1 [Compound 44, N-(3,5-dichloroperazin-2-ylmethyl)-3-methoxy-4-(oxazol-5-yl) aniline] | –
30 | 0.88 (≈ 2.52 µM) | COc1ccc(-c2cnco2)cc1NCc1ccc(Br)o1 [Compound 45, N-(5-bromofuran-2-ylmethyl)-2-methoxy-5-(oxazol-5-yl) aniline] | –
31 | 0.76 (≈ 2 µM) | COc1ccc(-c2cnco2)cc1NCc1ccc(-c2cccc(Cl)c2)o1 [Compound 46, N-[5-(3-chlorophenyl)-furan-2-ylmethyl]-2-methoxy-5-(oxazol-5-yl) aniline] | –
32 | 0.56 (≈ 1.17 µM) | COc1cc(NCc2ccc(C(=O)Nc3cc(OC)c(OC)c(OC)c3)o2)ccc1-c1cnco1 [Compound 47, N-2-(3,4,5-trimethoxyphenylaminocarbonyl) furan-5-ylmethyl 3-methoxy-4-(oxazol-5-yl)aniline] | –
33 | 0.5 (≈ 1.59 µM) | COCc1ccc(CNc2cc(-c3cnco3)ccc2OC)o1 [Compound 48, N-(5-methoxymethylfuran-2-ylmethyl)-2-methoxy-5-(oxazol-5-yl) aniline] | –
34 | 0.46 (≈ 1.44 µM) | COc1ccc(-c2cnco2)cc1NCc1coc2ccccc12 [Compound 50, N-(benzofuran-3-ylmethyl)-2-methoxy-5-(oxazol-5-yl) aniline] | –
35 | 2.47 (≈ 8.72 µM) | COc1cc(NCc2cccn2C)ccc1-c1cnco1 [Compound 51, N-(1-methyl-1H-pyrrol-2-ylmethyl)-3-methoxy-4-(oxazol-5-yl) aniline] | –
36 | 3.22 (≈ 9.27 µM) | COc1cc(-c2cnco2)c(NCc2ccnc3ccccc23)cc1O [Compound 58, 2-methoxy-4-(oxazol-5-yl)-5-[(quinolin-4-ylmethyl)-amino] phenol] | –
37 | 1.88 (≈ 9.88 µM) | COc1ccc(-c2cnco2)cc1N [Compound 67, 2-methoxy-5-(oxazol-5-yl) aniline] | –
